Laboratory results taken from PubChem BioAssay (NCI).
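Where inhibition never reached the appropriate level, the endpoint shown equals the highest concentration tested. Otherwise, values were interpolated linearly from a five-concentration, 48-hour dose response in 96-well plates. TGI: total growth inhibition.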 Where a SMILES comes first, the peptide text is derived from it. [ ]: non-standard residue; d: D form. The star is where a group is joined. ξ: configuration not given here. Propanoyl(3-(4-MeO-Ph)) = COc1ccc(CCC(=O)*)cc1; Thr(3ξ) = CC(O)[C@H](N)C(=O)O; dNMeL = CN[C@H](CC(C)C)C(=O)O; OBn = c1ccc(CO*)cc1; ξLac = CC(O)C(=O)O

Assays:
Assay in all cases: NCI-60 cell line screen, 48 h
MDA-MB-231 breast = tested on: MDA-MB-231 breast
COLO 205 colon = tested on: COLO 205 colon
SK-MEL-2 melanoma = tested on: SK-MEL-2 melanoma
U251 CNS = tested on: U251 CNS
MALME-3M melanoma = tested on: MALME-3M melanoma
IGROV1 ovarian = tested on: IGROV1 ovarian
SK-MEL-28 melanoma = tested on: SK-MEL-28 melanoma
SR leukemia = tested on: SR leukemia
MCF7 breast = tested on: MCF7 breast
SK-OV-3 ovarian = tested on: SK-OV-3 ovarian

| Structure (SMILES) | TGI (MDA-MB-231 breast) [µM] | TGI (COLO 205 colon) [µM] | TGI (SK-MEL-2 melanoma) [µM] | TGI (U251 CNS) [µM] | TGI (MALME-3M melanoma) [µM] | TGI (IGROV1 ovarian) [µM] | TGI (SK-MEL-28 melanoma) [µM] | TGI (SR leukemia) [µM] | TGI (MCF7 breast) [µM] | TGI (SK-OV-3 ovarian) [µM] |
| --- | --- | --- | --- | --- | --- | --- | --- | --- | --- | --- |
| OCCN=C1c2ccccc2C2C(c3ccccc31)C1c3ccccc3C(=NCCO)c3ccccc3C21 (stereo not given) | 31.4 | 44.4 | 30.5 | 41.3 | 75.7 | 98.5 | 36.4 | 28.9 | 60 | 61.5 |
| CC[C@@]1(O)C(=O)OCc2c1cc1n(c2=O)Cc2c-1nc1ccccc1c2/C=N\NC(=O)C(N)Cc1cnc[nH]1 (stereo not given in full) | > 100 | > 100 | > 46.5 | 5.03 | > 87.1 | > 54.7 | > 100 | 0.387 | 35.3 | > 100 |
| O=C(N/N=C\c1ccc([N+](=O)[O-])cc1)c1ccccc1Nc1ccccc1C(=O)N/N=C/c1ccc([N+](=O)[O-])cc1 | 95.1 | > 100 | > 100 | > 100 | > 100 | > 100 | > 100 | > 100 | > 100 | > 100 |
| N#C[C@@]12CCCC(=O)[C@@H]1[C@H]1CCC[C@H]12 | 31.2 | 45.7 | 43.3 | 35.5 | 32.3 | 32.2 | 35.3 | 59.5 | 49.8 | 32.8 |
| CC12CC3(O)OC(O1)C1(COC(=O)c4ccccc4)C3CC21OC1OC(CO)C(O)C(O)C1O (stereo not given) | > 100 | > 100 | > 100 | > 100 | > 100 | > 100 | > 100 | > 100 | > 100 | > 100 |
| CC(C)(C)OC(=O)NC(Cc1ccc(OCc2ccccc2)cn1)C(=O)N1CCSCC1 (stereo not given) | > 100 | 33.1 | > 100 | > 100 | > 100 | > 100 | > 100 | 75.3 | > 100 | > 100 |
| O=C1OC[C@@H]2Cc3c([nH]c4ccccc34)[C@@H](c3cc(O)c(O)c(O)c3)N12 | 42.3 | 42.6 | 18.9 | 59.8 | 49.7 | 49.7 | 42.9 | 61.9 | 84.1 | > 100 |
| COC(=O)[C@H](Cc1ccccc1)NP(=O)(O)OCC1OC(n2cc(C)c(=O)[nH]c2=O)CC1N=[N+]=[N-] (stereo not given in full) | > 100 | > 100 | > 100 | > 100 | > 100 | > 100 | > 100 | > 100 | > 100 | > 100 |
| Cc1ccc(O)c(-c2csc(NCN3CCN(CNc4nc(-c5cc(C)ccc5O)cs4)CC3)n2)c1 | > 100 | > 100 | > 100 | > 100 | > 100 | > 100 | > 100 | > 100 | > 100 | > 100 |
| COc1ccc(C(C#N)NCCCCCCNC(C#N)c2ccc(OC)cc2)cc1 (stereo not given) | > 100 | > 100 | > 100 | > 100 | > 100 | > 100 | > 100 | > 100 | > 100 | > 100 |
| COC(=O)c1ccc(CCc2cc(O)c(Br)cc2O)cc1 | 29 | 27.3 | 39.1 | 25.8 | 32.4 | 28.5 | 34.4 | 14.4 | 28.1 | > 62.5 |
| CCCC#CC(O)(C(=O)OC1CCN(C)CC1)C1CCCCC1 (stereo not given) | > 100 | > 100 | > 100 | > 100 | > 100 | > 100 | > 100 | > 100 | > 100 | > 100 |
| CC(=O)N1N=C(N)CC1=O | > 100 | > 100 | > 100 | > 100 | > 100 | > 100 | > 100 | > 100 | > 100 | > 100 |
| S=C(c1c[nH]c2ccccc12)N1CCN(c2ccccc2)CC1 | > 100 | > 100 | > 100 | 77.8 | 87.4 | > 100 | > 100 | > 100 | > 100 | > 100 |
| CC1(C)C(=O)C2(OS(=O)(=O)C(F)(F)F)CCC1C2 (stereo not given) | > 100 | > 100 | > 100 | > 100 | > 100 | > 100 | > 100 | > 100 | > 100 | > 100 |
| CCOC(=O)/C=C(\N=P(c1ccccc1)(c1ccccc1)c1ccccc1)C(F)(F)C(F)(F)C(F)(F)C(F)(F)C(F)(F)F | > 100 | > 100 | > 100 | > 100 | > 100 | > 100 | > 100 | > 100 | > 100 | > 100 |
| O=C(N/N=C\c1ccc([N+](=O)[O-])cc1)Nc1cccc2ccccc12 | 33.7 | > 100 | 23.9 | 23.6 | > 82.5 | > 100 | > 100 | > 100 | > 80.9 | 39 |
| COc1ccc(CCc2ccc(O)c(C(=O)O)c2)cc1OC | > 100 | > 100 | > 100 | > 100 | > 100 | > 100 | > 100 | > 100 | > 100 | > 100 |
| O=c1[nH]c2ccc(CC(=S)N3CCN(c4ccccc4)CC3)cc2o1 | > 100 | > 100 | > 100 | > 100 | > 100 | > 100 | > 100 | > 100 | > 100 | > 100 |
| NCCCc1c(-c2ccccc2)nc(N)[nH]c1=O | > 100 | > 100 | > 100 | > 100 | > 100 | > 100 | > 100 | > 100 | > 100 | > 100 |
| COc1ccc(CCC(=O)OC(C)[C@H](NC(=O)[C@@H](CC(C)C)N(C)C(=O)[C@@H]2CCCN2C(=O)C(C)O)C(=O)OCc2ccccc2)cc1 (stereo not given in full) (H-[ξLac]P[dNMeL][Thr(3ξ)](Propanoyl(3-(4-MeO-Ph)))-OBn) | 46.5 | 39 | 36.9 | > 100 | 45.4 | 91.9 | 32.9 | > 100 | > 100 | > 100 |
| CC1=C(C(=O)Nc2ccccc2)C(c2ccc(C)o2)C(C#N)=C(SCc2ccccc2)N1 (stereo not given) | > 100 | > 100 | > 100 | > 100 | > 100 | > 100 | > 100 | > 68.6 | > 100 | > 100 |
| N=c1oc2ccc(Cl)cc2cc1C(=O)NCc1ccccc1 | > 100 | > 100 | > 100 | > 100 | > 100 | > 100 | > 100 | > 100 | > 100 | > 100 |
| CN(C)CCNC(=O)c1ccc(NCCCN(C)CCCNc2ccc(C(=O)NCCN(C)C)c3[nH]c4ccc([N+](=O)[O-])cc4c(=O)c23)c2c(=O)c3cc([N+](=O)[O-])ccc3[nH]c12 | 0.34 | 0.502 | 0.382 | 0.162 | 1.37 | 0.389 | 1.06 | 1.91 | 0.655 | 1.35 |
| O=C1OC(C2OC(=O)c3cc(O)c(O)c(O)c3-c3c(O)c(O)c4oc(=O)c5c(c(O)c(O)c6oc(=O)c3c4c65)-c3c(cc(O)c(O)c3O)C(=O)OCC2O)C2OC(=O)c3c(c(O)c(O)c(O)c3[C@H]2O)-c2c1cc(O)c(O)c2O (stereo not given in full) | 33.7 | 36.6 | > 100 | 57.6 | > 100 | > 100 | > 100 | 43.4 | 21.5 | > 100 |
| N#CC(N=Nc1ccccc1)c1nc2ccccc2o1 (stereo not given) | 57.4 | 68.7 | 70.5 | 59.5 | > 100 | 42.9 | > 100 | > 100 | > 100 | 68 |
